For the assay, the target named is T1, Trans-sialidase (Trypanosoma cruzi, UniProt Q26966).
T1 sequence (Q26966 whole entry): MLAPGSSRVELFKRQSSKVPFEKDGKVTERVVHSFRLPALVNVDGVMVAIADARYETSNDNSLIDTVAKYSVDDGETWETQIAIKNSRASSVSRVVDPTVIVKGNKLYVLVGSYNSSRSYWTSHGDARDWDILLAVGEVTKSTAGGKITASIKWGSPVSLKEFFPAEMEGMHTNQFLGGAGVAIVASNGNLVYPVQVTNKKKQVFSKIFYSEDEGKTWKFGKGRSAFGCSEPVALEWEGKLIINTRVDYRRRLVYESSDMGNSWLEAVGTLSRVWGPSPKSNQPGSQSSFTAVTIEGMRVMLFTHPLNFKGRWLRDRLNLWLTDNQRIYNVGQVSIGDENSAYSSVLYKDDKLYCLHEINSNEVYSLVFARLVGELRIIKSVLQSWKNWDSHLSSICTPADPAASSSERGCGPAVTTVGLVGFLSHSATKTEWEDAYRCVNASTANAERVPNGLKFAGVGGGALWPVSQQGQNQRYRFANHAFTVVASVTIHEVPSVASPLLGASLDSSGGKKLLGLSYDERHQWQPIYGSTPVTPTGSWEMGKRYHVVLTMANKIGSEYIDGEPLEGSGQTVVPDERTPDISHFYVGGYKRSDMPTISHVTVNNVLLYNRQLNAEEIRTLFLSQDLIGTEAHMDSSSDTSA
As to the kind of experiment: Inhibition Assay. As to conditions: pH 7.6; 35 °C. From the text:
Inhibition assay using trans-sialidase, a membrane-associated protein.

Molecules are shown by their SMILES.

Broadly, the IC50 is the concentration needed to halve the response being measured. Lower therefore signals greater potency. Broadly, the Ki is the equilibrium dissociation constant of an inhibitor or competing ligand from its target. A lower Ki goes with tighter binding. As to `Cc1ccc(S(=O)(=O)N2c3ccccc3C(=O)/C(=C/c3ccc(O)c(O)c3)C2c2ccc(O)c(O)c2)cc1` (centres undefined) [Quinolinone derivative, 9], the IC50 is 0.6 µM and the Ki came to 0.4 µM.

As to `Cc1ccc(S(=O)(=O)Nc2ccc(C(=O)/C=C/c3ccc(O)c(O)c3)cc2)cc1`, the IC50 amounted to 0.9 µM and the Ki is 4.6 µM. In turn, `Cc1ccc(S(=O)(=O)Nc2cccc(C(=O)/C=C/c3ccc(O)cc3)c2)cc1` [Sulfonamide chalcone, 6] yielded an IC50 of 37 µM. Still for that read-out and setting: under `Cc1ccc(S(=O)(=O)Nc2ccc(C(=O)/C=C/c3ccc(O)cc3)cc2)cc1` stands 73 µM. `Cc1ccc(S(=O)(=O)Nc2cccc(C(=O)/C=C/c3ccc(O)c(O)c3)c2)cc1` showed an IC50 of 2.5 µM and a Ki of 3.7 µM. Molecule `Cc1ccc(S(=O)(=O)N2c3ccccc3C(=O)/C(=C/c3ccc(O)cc3)C2c2ccc(O)cc2)cc1` (centres undefined) [Quinolinone derivative, 8] came in with an IC50 of 30 µM.

Values taken from BindingDB's records for doi:10.1002/cbic.200900108 (University of British Columbia, 2009).
